Columns and labels:
A2780 cells [1] = experiment: Fluorescence microscopy cell binding of GnRHa-ICG / ICG; assay type: cell-based, human; details: 60 min, 37°C, confocal microscopy
Description: (§1) The cells were placed in an 8-well chamber slide (Ibidi) and grown to ~60% confluence. A2780, CAOV-3, ES-2, and HeyA8 cells were incubated with 100 μmol/L GnRHa-FITC, and A2780, OSE, and H1299 cells were incubated with 20 μmol/L GnRHa-ICG or ICG (Sigma-Aldrich) for 60 min at 37°C. After incubation, the cells were washed with PBS, fixed in 4% paraformaldehyde, labeled with WGA Alexa Fluor 594 conjugate or WGA Alexa Fluor 488 conjugate (Invitrogen), and mounted with DAPI. These samples were analyzed using TCS SP5 confocal microscopy (Leica). For quantitative analysis, the mean fluorescence intensity was calculated using ImageJ software (version 1.50 g).

OSE cells = experiment: as above; assay type: cell-based, human; details: 60 min, 37°C, confocal microscopy
Description: as §1

[2] = tested on: A2780 and OSE cells (GnRHR-positive); experiment: Flow cytometry blocking experiment with unlabeled GnRHa peptide; assay type: cell-based, human; details: pretreated with 100 μmol/L GnRHa peptide 10 min, then 2 μmol/L GnRHa-ICG 30 min, 37°C, triplicate
Description: A2780 and OSE cells were placed in 6-well plates, grown to ~70% confluence, and then incubated with GnRHa-FITC (20 μmol/L) or GnRHa-ICG/ICG (10 μmol/L) for 30 min at 37°C. For the blocking experiments, cells were pretreated with 100 μmol/L GnRHa peptide for 10 min and then incubated with 2 μmol/L GnRHa-ICG for 30 min at 37°C. Samples were measured on a CytoFLEX flow cytometer (Beckman Coulter) or a FACSAria flow cytometer (BD Biosciences). All samples were examined in triplicate. Data were analyzed using FlowJo software (version X 10.0.7).

A2780 cells [3] = experiment: Cell viability assay (Cell Counting Kit-8); assay type: cell-based, human; details: 0, 1, 10, 100 μmol/L, 48 h exposure, CCK-8, 4 sub-wells
Description: A2780 cells were seeded in 96-well plate and grown to ~40% confluence. Cells were incubated with GnRHa-ICG at different concentrations: 0, 1, 10, and 100 μmol/L. Each group had 4 sub-wells. After exposure for 48 h, cell viabilities were assessed by Cell Counting Kit-8 assay (Dojindo). The absorbance at 450 nm (reference wavelength: 630 nm) was measured with a microplate reader.

[4] = tested on: A2780 peritoneal metastases of ovarian cancer; assay type: in vivo, Balb/c nude mice
Text: The xenograft model for metastatic ovarian cancer was previously described ([18]). Female Balb/c nude mice (5–6 weeks old) were intraperitoneally injected with 1 × 10^7 A2780 cells. Tumors were allowed to grow for 2–3 weeks. The Institutional Animal Care and Use Committee of Fudan University approved all protocols presented in these studies.
For ex vivo GnRHa-ICG and ICG (0, 1, 10, and 20 μmol/L) imaging, fluorescence signals were taken using the IVIS Lumina K imaging system (PerkinElmer) and the clinically used Fluorescence Navigation system (the FloNavi, Optomedic Technique Inc., Guangdong, China). For intraperitoneal metastasis imaging, 0.72 μmol/kg of GnRHa-ICG or ICG was injected intraperitoneally in mice. Mice were sacrificed at the indicated times (n = 3 per group), and the abdominal cavities were exposed. Fluorescence images were obtained using the IVIS Lumina K imaging system (PerkinElmer) with a 780 nm excitation filter and an 845 nm emission filter. For ex vivo imaging, xenografts and organs were immediately dissected and analyzed after sacrifice.
Fluorescence signals were quantified as the average radiant efficiency ([p/s/cm^2/sr]/[μW/cm^2]) using the Living Image software. The fluorescence intensity was measured by drawing a region of interest (ROI) around the area. The tumor-to-background ratio (TBR) was calculated as the average fluorescence intensity of the tumor divided by that of the skeletal muscle or intestine.

Balb/c nude mice = experiment: In vivo toxicity test; details: 1.5 mg/kg intraperitoneal, n = 4
Description: The toxicity of GnRHa-ICG was determined in Balb/c nude mice (n = 4). Two groups received intraperitoneal injections of 1.5 mg/kg GnRHa-ICG and were followed for 2 and 96 h. The control group received vehicle alone. Blood draws were done to assess alanine transaminase (ALT), aspartate transaminase (AST), blood urea nitrogen (BUN), creatinine (CREA), white blood cells (WBC), and red blood cells (RBC). Tissues of the heart, lung, liver, spleen and kidney were harvested for HE staining.

[5] = 20 μmol/L, mean fluorescence intensity by ImageJ
[6] = 2 h post administration, 0.72 μmol/kg intraperitoneal, IVIS Lumina K, ex 780/em 845 nm, mean ± SD, n = 3 per group

Compound	fluorescence intensity, fold higher than in H1299 cells (GnRHR-negative) (A2780 cells [1]; [5]) [fold]	fluorescence intensity, fold higher than in H1299 cells (GnRHR-negative) (OSE cells; [5]) [fold]	effect of competition with unlabeled GnRHa on fluorescence intensity [2]	cell viability after exposure (tumorigenic potential) (A2780 cells [3])	course of tumor-to-background ratio (TBR) over time ([4]; between 2 and 48 h, intraperitoneal)	ex vivo imaging of the brain (binding to hypothalamic GnRHR) ([4]; mouse, in vivo)	fluorescence in benign retroperitoneal lymph nodes versus tumor ([4]; mouse, in vivo)	fluorescence in control (normal, non-tumor) mice ([4]; mouse, in vivo, ip)	time at which fluorescence signal of A2780 xenografts peaked in intensity ([4]; mouse, in vivo, ip) [h]	time for which tumor fluorescence intensities were maintained ([4]; mouse, in vivo, ip)	time of highest fluorescence density in the liver ([4]; mouse, in vivo, ip) [h]	ALT, AST, CREA, WBC and RBC, control versus test groups (Balb/c nude mice; 2 and 96 h)	BUN (Balb/c nude mice; 96 h after injection)	histological observation of main organs (heart, lung, liver, spleen, kidney; HE staining) (Balb/c nude mice)	fluorescence signal, times lower than with incubation of GnRHa-ICG (A2780 cells [1]; 20 μM each) [times]	fluorescence signal, times lower than with incubation of GnRHa-ICG (OSE cells; 20 μM each) [times]	tumor-to-intestine ratio [4, 6]	tumor-to-muscle ratio [4, 6]	course of tumor fluorescence intensity ([4]; mouse, in vivo)
D-2-Nal-D-4-Cl-Phe-D-3-Pal-Ser-Tyr-D-Cit-Leu-Arg-Pro-D-Ala-NH2 [GnRHa-ICG]	1.56	1.34	partial reduction in fluorescence intensity	does not increase cell viability	stable	did not show fluorescence signals	fewer fluorescence signals	did not show fluorescence signals	2	up to 48 h	24	no significant difference	slight decrease	did not present any obvious damage					
CC1(C)C(/C=C/C=C/C=C/C=C2\N(CCCCS(=O)(=O)O)c3ccc4ccccc4c3C2(C)C)=[N+](CCCCS(=O)(=O)[O-])c2ccc3ccccc3c21 [ICG, Indocyanine green, reference compound]								high fluorescence signals							2.61	2.25	0.57 ± 0.06	4.60 ± 0.50	decreased quickly within 48 h
